Experimental data taken from patent US20070060632A1, “Lofexidine” (TEXCONTOR ETABLISSEMENT, priority 2005, published 2007).
“And” between values parts separate entries of the source, which are not always exact repeats. Identical values can stand only once. Counter-ions that a name gives are not always drawn.

How the values were obtained:
[1] = tested on: rat model of post-operative pain; test: Rat model of post-operative pain (hind paw incision), tactile allodynia by Electronic Von Frey; type: in vivo; conditions: for Tactile Pressure Post-treatment, Average per rat: average of 4 points of one rat; for % Inhibition: Δ Treatment/Δ Blank × 100% / Δ Treatment: Tactile Pressure [(Post-Treatment) − (Pre-Treatment)]: group; for % Inh per rat: individual rat; for Tactile Pressure Post-Treatment: single points (4 per rat), 24 hours after surgery
Protocol: Lofexidine at 0.00032 and 0.0032 mg/rat injected intrathecally (ITH) was evaluated for possible analgesic activity in a rat model of post-operative pain which was induced with an incision made on the plantar surface of the hind paw. To measure tactile allodynia, a supertip with a flattened surface connected to Electrovonfrey Aesthethiometer (IITC, USA) was applied slowly and gently onto the plantar surface of the hind paw, where 4 points around the incision were identified. The endpoint is the mean withdrawal threshold values (gm) in response to von Frey filament, serving as a measure of analgesic activity. Percent inhibition was calculated as Δ treatment values (change in threshold pressure caused by treatment) relative to Δ blank values (change in threshold value caused by incision). Lofexidine.HCl was dissolved in 0.9% NaCl and at doses of 0.00032 and 0.0032 mg/rat was administered intrathecally (ITH). The dosing volume was 10 μl/rat. Male Wistar derived rats weighing 270±30 g provided by BioLasco Taiwan (under Charles River Laboratories Technology licensee) were used. Space allocation for animals was 45×23×15 cm for 6 rats. Animals were housed in APEC^R cages. All animals were maintained in a controlled temperature (22-24° C.) and humidity (60%-80%) environment with 12 hours light dark cycles for at least one week in MDS Pharma Services-Taiwan Laboratory prior to use. Free access to standard lab chow (Lab Diet, Rodent Diet, PMI Nutrition International, USA) and tap water was granted. All aspects of this work including housing, experimentation and disposal of animals were performed in general accordance with the Guide for the Care and Use of Laboratory Animals (National Academy Press, Washington, D. C, 1996). Groups of 5 male Wistar rats weighing 270±30 g were used. Prior to surgery, individual animals were acclimatised to the testing environment and baseline responses to Electronic Von Frey Aesthesiometer (2290CE Electrovonfrey®, IITC, USA) with a rigid tip were performed (Pre-Incision). Under pentobarbital (50 mg/kg, 5 ml/kg, i.p.) anesthesia, the left hind paw was aseptically prepared. A 1-cm longitudinal incision was made with a number 11 blade, through the skin and fascia of the plantar aspect of the foot, starting 0.5 cm from the proximal edge of the heel and extending toward the toes. The plantaris muscle was elevated and incised longitudinally, followed by crushing with a mosquito hemostat for 20 seconds. The muscle origin and insertion remained intact After hemostasis with gentle pressure, the skin and fascia were then closed as one layer using 4-0 silk suture. Evaluation for pain was performed at 24 hours postoperatively between 08:00 and 16:00 h. Each animal was monitored at 15, 30, 60 and 120 minutes after intrathecal administration of lofexidine.HCl. The rats were placed under inverted plexiglas cages on a wire mesh rack and a brief observation of general behavior post-injection was made. The rigid tip part of the Electronic Von Frey Aesthesiometer was applied perpendicularly from underneath the mesh floor to the four points around the wound surface of the animal with slow upward force against the paw. A positive response to tactile pressure was recorded if the paw was sharply withdrawn; ambulation was considered an ambiguous response, and in such cases, the stimulus was reapplied. Mean values from 4 points for each rat and from 5 rats in each group were calculated. Percent inhibition due to treatment relative to pre-treatment pain response was calculated according to the formula: Tactile Pressure [(Post-Treatment)−(Pre-Treatment)]/[(Pre-Incision)−(Pre-Treatment)]×100%. Inhibition by 50% or more (≧50%) is considered significant analgesic effect. Unpaired Student's t test is applied for comparison of the % inhibition values between test substance-and vehicle-treated groups. Significance is considered at P<0.05 level

[2] = tested on: nerve ligation-induced chronic pain model in rats; test: Nerve ligation-induced chronic (neuropathic) pain model in rats, mechanical allodynia by Electronic Von Frey; type: in vivo, rat; conditions: for Tactile Pressure Post-Treatment, Average / Tactile Pressure Δ Treatment, Average: average of 5 rats; for Tactile Pressure Post-Treatment / Tactile Pressure Δ Treatment: individual rat
Protocol: Lofexidine was evaluated for possible analgesic activity in neuropathic pain using a nerve ligation-induced chronic pain model in rats. Lofexidine HCl was administered intrathecally (ITH) at 3.2 and 10 μg/animal and analgesia was measured at 15, 30, 60 and 120 minutes post-dosing using an Electronic Von Frey Aesthesiometer (IITC, USA) with a #12 supertip. A 50% or greater (≧50%) inhibition relative to blank indicates possible analgesic activity. Lofexidine HCl at doses of 3.2 and 10 μg/animal were administered intrathecally. Sterile Saline (obtained from Sintong Biotech Company, Taiwan) was used as vehicle and dosing volume was 10 μl/animal. Male Wistar rats weighing 160 to 200 g were used. Under pentobarbital (50 mg/kg, 5 ml/kg, i.p.) anesthesia, the sciatic nerve was exposed at mid-thigh level. Three ligatures (4-0 silk suture), about 1 mm apart, were loosely tied around the nerve. The animals were then housed individually in cages with soft bedding for 7 days before testing for mechanical allodynia. On the test day, rats were placed under inverted plexiglas cages on a wire mesh rack and allowed to acclimatise for 20 to 30 minutes. Allodynia was evaluated by responsiveness to a #12 Supertip® (IITC, USA) applied beneath the mesh floor perpendicular to the central plantar surface of the left hind paw. The tip was gradually applied with sufficient force to cause slight buckling of the filament against the paw. A positive response to the applied tactile pressure, noted by sharp withdrawal of the paw, was recorded automatically by an Electronic Von Frey Aesthesiometer (2290CE Electrovonfrey®, IITC, USA). The endpoint is the withdrawal threshold (gm) to von Frey filament, serving as a measure of analgesic activity. Rats were pre-selected (for presence of allodynia) for experimentation only if the withdrawal threshold 7 days after nerve ligation (pre-treatment) was reduced by 10 grams of force relative to the response of the individual paw before nerve ligation (pre-ligation). Test substance or vehicle was administered intrathecally (3.2 μg and 10 μg/animal) to groups of 5 animals and the level of allodynia was again determined (at 15, 30, 60 and 120 minutes post-treatment). Allodynia is calculated as follows: % Inhibition=ΔTreatment/ΔBlank×100%; where Δ Treatment is Tactile Pressure [(Post-Treatment)−(Pre-Treatment)] and Δ Blank is Tactile Pressure [(Pre-Ligation)−(Pre-Treatment)]. A 50 percent or greater (≧50%) inhibition relative to blank indicates possible analgesic activity.

chronic pelvic pain = conditions: given orally, dosages of up to 1200 μg per day; cited from earlier work
[3] = systemically (orally or by intravenous injection), especially at high doses (>600 μg per day); cited from earlier work

For CC(Oc1c(Cl)cccc1Cl)C1=NCCN1 (centres unmarked) [Lofexidine HCl], the “Tactile Pressure Post-treatment, Average per rat” value ([1]; 0.00032 mg/rat ITH, 15 min.) was 18.0 g, the “% Inhibition: Δ Treatment/Δ Blank × 100%” value ([1]; 0.00032 mg/rat ITH, 15 min.) was 2.6% and the “Δ Treatment: Tactile Pressure [(Post-Treatment) − (Pre-Treatment)]” value (“Δ Treatment: Tactile Pressure” below) ([1]; 0.00032 mg/rat ITH, 15 min.) was 0.8 g. For the same compound, the “% Inh per rat” value ([1]; 0.00032 mg/rat ITH, 15 min.) was −7.4% and 2.5% and −5.6% and 8.0%, the “% Inhibition: Δ Treatment/Δ Blank × 100%” value ([1]; 0.00032 mg/rat ITH, 30 min.) was 7.6% and the “Δ Treatment: Tactile Pressure” value ([1]; 0.00032 mg/rat ITH, 30 min.) was 2.3 g. For the same compound, the “% Inh per rat” value ([1]; 0.00032 mg/rat ITH, 30 min.) was −3.2% and 4.1%, the “Tactile Pressure Post-Treatment” value ([1]; 0.00032 mg/rat ITH, 30 min.) was 26.0 g and 20.0 g and the “Tactile Pressure Post-treatment, Average per rat” value ([1]; 0.00032 mg/rat ITH, 60 min.) was 22.0 g. The “% Inhibition: Δ Treatment/Δ Blank × 100%” value ([1]; 0.00032 mg/rat ITH, 60 min.) was 4.3%, the “Δ Treatment: Tactile Pressure” value ([1]; 0.00032 mg/rat ITH, 60 min.) was 1.3 g and the “% Inh per rat” value ([1]; 0.00032 mg/rat ITH, 60 min.) was −0.7% and 3.0% and 0.8% and 7.4%. For the same compound, the “Tactile Pressure Post-Treatment” value ([1]; 0.00032 mg/rat ITH, 60 min.) was 22.0 g, the “% Inhibition: Δ Treatment/Δ Blank × 100%” value ([1]; 0.00032 mg/rat ITH, 120 min.) was 0.3% and the “Δ Treatment: Tactile Pressure” value ([1]; 0.00032 mg/rat ITH, 120 min.) was 0.1 g. The “% Inh per rat” value ([1]; 0.00032 mg/rat ITH, 120 min.) was −2.5% and −7.4% and 2.5% and 4.1% and 4.7%, the “Tactile Pressure Post-Treatment” value ([1]; 0.00032 mg/rat ITH, 120 min.) was 21.0 g (2×) and 22.0 g and 18.0 g and the “Tactile Pressure Post-treatment, Average per rat” value ([1]; 0.0032 mg/rat ITH, 15 min.) was 46.0 g. The “Tactile Pressure Post-Treatment” value ([1]; 0.0032 mg/rat ITH, 15 min.) was 43.0 g and 60.0 g, the “% Inh per rat” value ([1]; 0.0032 mg/rat ITH, 30 min.) was 47.0% and the “Tactile Pressure Post-Treatment” value ([1]; 0.0032 mg/rat ITH, 30 min.) was 44.0 g. The “Δ Treatment: Tactile Pressure” value ([1]; 0.0032 mg/rat ITH, 60 min.) was 8.9 g, the “% Inh per rat” value ([1]; 0.0032 mg/rat ITH, 60 min.) was −3.5% and 0.9% and the “Tactile Pressure Post-Treatment” value ([1]; 0.0032 mg/rat ITH, 60 min.) was 29.0 g. The “Tactile Pressure Post-treatment, Average per rat” value ([1]; 0.0032 mg/rat ITH, 120 min.) was 22.0 g, the “% Inhibition: Δ Treatment/Δ Blank × 100%” value ([1]; 0.0032 mg/rat ITH, 120 min.) was 5.5% and the “Δ Treatment: Tactile Pressure” value ([1]; 0.0032 mg/rat ITH, 120 min.) was 1.8 g. For the same compound, the “% Inh per rat” value ([1]; 0.0032 mg/rat ITH, 120 min.) was 1.2% and 5.8% and −2.5% and −8.2%, the Tactile Pressure Post-Treatment, Average ([2]; 3.2 μg/animal ITH, 15 Minutes) was 12.5 g and the “Tactile Pressure Δ Treatment, Average” value ([2]; 3.2 μg/animal ITH, 15 Minutes) was 1.3 g. The “Tactile Pressure Post-Treatment” value ([2]; 3.2 μg/animal ITH, 15 Minutes) was 8.9 g and 5.8 g, the “Tactile Pressure Δ Treatment” value ([2]; 3.2 μg/animal ITH, 15 Minutes) was -1.8 g and -5.2 g and 8.5 g and 6.3 g and -1.1 g and the “Tactile Pressure Δ Treatment, Average” value ([2]; 3.2 μg/animal ITH, 30 Minutes) was -1.1 g. For the same compound, the “Tactile Pressure Post-Treatment” value ([2]; 3.2 μg/animal ITH, 30 Minutes) was 7.4 g and 8.5 g and 10.0 g, the “Tactile Pressure Δ Treatment” value ([2]; 3.2 μg/animal ITH, 30 Minutes) was -0.5 g and -3.8 g and -0.6 g and 1.4 g and -2.0 g and the “Tactile Pressure Post-Treatment, Average” value ([2]; 3.2 μg/animal ITH, 60 Minutes) was 9.3 g. For the same compound, the “Tactile Pressure Δ Treatment, Average” value ([2]; 3.2 μg/animal ITH, 60 Minutes) was -1.8 g, the “Tactile Pressure Post-Treatment” value ([2]; 3.2 μg/animal ITH, 60 Minutes) was 8.7 g and 7.5 g and 6.5 g and the “Tactile Pressure Δ Treatment” value ([2]; 3.2 μg/animal ITH, 60 Minutes) was -2.0 g and -3.7 g and -2.1 g and 4.2 g and -5.5 g. The “Tactile Pressure Post-Treatment, Average” value ([2]; 3.2 μg/animal ITH, 120 Minutes) was 9.2 g, the “Tactile Pressure Δ Treatment, Average” value ([2]; 3.2 μg/animal ITH, 120 Minutes) was -2.0 g and the “Tactile Pressure Post-Treatment” value ([2]; 3.2 μg/animal ITH, 120 Minutes) was 8.6 g and 6.1 g and 7.9 g. The “Tactile Pressure Δ Treatment” value ([2]; 3.2 μg/animal ITH, 120 Minutes) was -2.1 g and -5.1 g and -2.4 g and 0.8 g and -1.2 g, the “Tactile Pressure Δ Treatment, Average” value ([2]; 10 μg/animal ITH, 15 Minutes) was 13.0 g and the “Tactile Pressure Post-Treatment” value ([2]; 10 μg/animal ITH, 15 Minutes) was over 36.8 g. For the same compound, the “Tactile Pressure Δ Treatment” value ([2]; 10 μg/animal ITH, 15 Minutes) was 1.5 g and 11.0 g, the “Tactile Pressure Post-Treatment” value ([2]; 10 μg/animal ITH, 30 Minutes) was 7.0 g and >31.5 g and >35.5 g and the “Tactile Pressure Δ Treatment” value ([2]; 10 μg/animal ITH, 30 Minutes) was -3.9 g and 4.3 g. For the same compound, the “Tactile Pressure Post-Treatment” value ([2]; 10 μg/animal ITH, 60 Minutes) was 8.9 g, the “Tactile Pressure Δ Treatment” value ([2]; 10 μg/animal ITH, 60 Minutes) was 8.4 g and 4.2 g and -2.4 g and the “Tactile Pressure Post-Treatment, Average” value ([2]; 10 μg/animal ITH, 120 Minutes) was 11.0 g. The “Tactile Pressure Δ Treatment, Average” value ([2]; 10 μg/animal ITH, 120 Minutes) was 0.6 g, the “Tactile Pressure Post-Treatment” value ([2]; 10 μg/animal ITH, 120 Minutes) was 6.4 g and the “Tactile Pressure Δ Treatment” value ([2]; 10 μg/animal ITH, 120 Minutes) was 1.4 g and -0.1 g and 5.2 g and 1.3 g and -4.9 g. For the same compound, the “time of peak analgesic activity post-dosing” value ([2]; 10 μg/animal intrathecal) was 30 min, the “analgesic activity at 120 minutes post-dosing” value ([2]; 10 μg/animal intrathecal, 120 minutes post-dosing) was “no longer evident” and the “effectiveness in treatment of chronic pelvic pain” value (chronic pelvic pain) was “not effective”. The “common symptoms associated with systemic use” value [3] was “drowsiness, sedation and blood pressure and heart rate increases”.

In the case of CC(Oc1c(Cl)cccc1Cl)C1=NCCN1 (centres unmarked) [Lofexidine], the “analgesic effect against post-operative pain” value ([1]; 0.00032 mg/rat ITH) is reported as “slight analgesic effect”, the “analgesic effect against post-operative pain” value ([1]; 0.0032 mg/rat intrathecal, 15 and 30 minute time points, compared with Δ blank values) is reported as “demonstrated analgesic effect” and the “analgesic activity, neuropathic pain” value ([2]; 3.2 μg/animal intrathecal) is reported as “low levels of analgesic activity”. For the same compound, the “analgesic activity, neuropathic pain” value ([2]; 10 μg/animal intrathecal, 30 minutes post-injection) was “significant analgesic activity”.
